From PubChem BioAssay AID1963440 (Molecular Pharmacology Branch, DTP, NCI, 2024)
Values joined by “and” are separate entries in the source; they are usually repeats but may differ in a detail not shown here. Equal values may be shown once.

Test system: NCI-H1417 complex spheroids, growth % test/control
Assay: Anticancer human tumor NCI-H1417 cell line growth inhibition [Asc];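 further: spheroids exposed to compounds for 7 days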;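 on viability, T/C: 100% = DMSO vehicle control wells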
Conditions: for viability, T/C: stronger effect = lower value
Method in brief: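 Complex solid-tumor spheroids incorporating human endothelial and mesenchymal stem cells received single agents or combinations over half-log dilution ranges anchored to clinical Cmax.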

[1] = curve of first compound, second compound 0.01 µM
[2] = curve of first compound, second compound 0.0316 µM
[3] = curve of first compound, second compound 0.1 µM
[4] = curve of first compound, second compound 0.316 µM
[5] = curve of first compound, second compound 1 µM
[6] = second compound 0.01 µM, first compound 0.0316 µM
[7] = second compound 0.01 µM, first compound 0.1 µM
[8] = second compound 0.01 µM, first compound 0.316 µM
[9] = second compound 0.01 µM, first compound 1 µM
[10] = second compound 0.0316 µM, first compound 0.0316 µM
[11] = second compound 0.0316 µM, first compound 0.1 µM
[12] = second compound 0.0316 µM, first compound 0.316 µM
[13] = second compound 0.0316 µM, first compound 1 µM
[14] = second compound 0.1 µM, first compound 0.0316 µM
[15] = second compound 0.1 µM, first compound 0.1 µM
[16] = second compound 0.1 µM, first compound 0.316 µM
[17] = second compound 0.1 µM, first compound 1 µM
[18] = second compound 0.316 µM, first compound 0.0316 µM
[19] = second compound 0.316 µM, first compound 0.1 µM
[20] = second compound 0.316 µM, first compound 0.316 µM
[21] = second compound 0.316 µM, first compound 1 µM
[22] = second compound 1 µM, first compound 0.0316 µM
[23] = second compound 1 µM, first compound 0.1 µM
[24] = second compound 1 µM, first compound 0.316 µM
[25] = second compound 1 µM, first compound 1 µM

O=C(c1cc(Cc2n[nH]c(=O)c3ccccc23)ccc1F)N1CCN(C(=O)C2CC2)CC1 + CNC(C)C(=O)NC1CN(S(=O)(=O)c2cccc(S(=O)(=O)N3CCC4CCC(C(=O)NC(c5ccccc5)c5ccccc5)N4C(=O)C(NC(=O)C(C)NC)C3)c2)CCC2CCC(C(=O)NC(c3ccccc3)c3ccccc3)N2C1=O
IC50 [1]: 5780 nM | IC50 [2]: 6330 nM | IC50 [3]: 4790 nM | IC50 [4]: 5520 nM | IC50 [5]: 5390 nM | viability, T/C [6]: 101% | viability, T/C [7]: 101% | viability, T/C [8]: 94.7% | viability, T/C [9]: 83.6% | viability, T/C (second compound 0.01 µM, first compound 3.16 µM): 65.6% | viability, T/C (second compound 0.01 µM, first compound 10 µM): 36.1% | viability, T/C [10]: 102% | viability, T/C [11]: 87.8% | viability, T/C [12]: 88.5% | viability, T/C [13]: 100% | viability, T/C (second compound 0.0316 µM, first compound 3.16 µM): 71.5% | viability, T/C (second compound 0.0316 µM, first compound 10 µM): 35.8% | viability, T/C [14]: 90.3% | viability, T/C [15]: 93.5% | viability, T/C [16]: 81.8% | viability, T/C [17]: 90% | viability, T/C (second compound 0.1 µM, first compound 3.16 µM): 60.7% | viability, T/C (second compound 0.1 µM, first compound 10 µM): 30.9% | viability, T/C [18]: 99.9% | viability, T/C [19]: 92.3% | viability, T/C [20]: 96.7% | viability, T/C [21]: 85.6% | viability, T/C (second compound 0.316 µM, first compound 3.16 µM): 68.8% | viability, T/C (second compound 0.316 µM, first compound 10 µM): 30% | viability, T/C [22]: 97.7% | viability, T/C [23]: 90% | viability, T/C [24]: 91.2% | viability, T/C [25]: 95% | viability, T/C (second compound 1 µM, first compound 3.16 µM): 65.5% | viability, T/C (second compound 1 µM, first compound 10 µM): 32%

CNC(C)C(=O)NC1CN(S(=O)(=O)c2cccc(S(=O)(=O)N3CCC4CCC(C(=O)NC(c5ccccc5)c5ccccc5)N4C(=O)C(NC(=O)C(C)NC)C3)c2)CCC2CCC(C(=O)NC(c3ccccc3)c3ccccc3)N2C1=O (stereo not drawn)
viability, T/C (compound 0.00316 µM): 95% and 113% and 107% | viability, T/C (compound 0.01 µM): 105% [middle of 14 runs] | viability, T/C (compound 0.0316 µM): 97.8% [middle of 13 runs] | viability, T/C (compound 0.316 µM): 96.8% [middle of 14 runs] | viability, T/C (compound 1 µM): 97.5% [middle of 14 runs] | IC50 (compound alone, run of 10/24/2022): > 1000 nM | IC50 (compound alone, run of 11/15/2022): > 1000 nM | IC50 (curve of compound): > 1000 nM

O=C(c1ccc(F)c(F)c1Nc1ccc(I)cc1F)N1CC(O)([C@@H]2CCCCN2)C1 + CCN1C(C(=O)NC23CCC(C(=O)O)(CC2)CC3)C(c2cccc(Cl)c2F)C2(C(=O)Nc3cc(Cl)ccc32)C12CCCCC2
IC50 (curve of first compound, second compound 0.03 µM): > 1000 nM | IC50 (curve of first compound, second compound 0.0949 µM): > 1000 nM | IC50 (curve of first compound, second compound 0.3 µM): > 1000 nM | IC50 (curve of first compound, second compound 0.949 µM): > 1000 nM | IC50 (curve of first compound, second compound 3 µM): > 1000 nM | viability, T/C (second compound 0.03 µM, first compound 0.00316 µM): 85.9% | viability, T/C (second compound 0.03 µM, first compound 0.01 µM): 91.6% | viability, T/C (second compound 0.03 µM, first compound 0.0316 µM): 88.9% | viability, T/C (second compound 0.03 µM, first compound 0.1 µM): 85.9% | viability, T/C (second compound 0.03 µM, first compound 0.316 µM): 88.2% | viability, T/C (second compound 0.03 µM, first compound 1 µM): 81.2% | viability, T/C (second compound 0.0949 µM, first compound 0.00316 µM): 101% | viability, T/C (second compound 0.0949 µM, first compound 0.01 µM): 89% | viability, T/C (second compound 0.0949 µM, first compound 0.0316 µM): 97.5% | viability, T/C (second compound 0.0949 µM, first compound 0.1 µM): 84.1% | viability, T/C (second compound 0.0949 µM, first compound 0.316 µM): 88.8% | viability, T/C (second compound 0.0949 µM, first compound 1 µM): 88.8% | viability, T/C (second compound 0.3 µM, first compound 0.00316 µM): 94.6% | viability, T/C (second compound 0.3 µM, first compound 0.01 µM): 76.9% | viability, T/C (second compound 0.3 µM, first compound 0.0316 µM): 91.6% | viability, T/C (second compound 0.3 µM, first compound 0.1 µM): 89.6% | viability, T/C (second compound 0.3 µM, first compound 0.316 µM): 85.4% | viability, T/C (second compound 0.3 µM, first compound 1 µM): 89.5% | viability, T/C (second compound 0.949 µM, first compound 0.00316 µM): 79.4% | viability, T/C (second compound 0.949 µM, first compound 0.01 µM): 87.8% | viability, T/C (second compound 0.949 µM, first compound 0.0316 µM): 85% | viability, T/C (second compound 0.949 µM, first compound 0.1 µM): 87.5% | viability, T/C (second compound 0.949 µM, first compound 0.316 µM): 78.8% | viability, T/C (second compound 0.949 µM, first compound 1 µM): 87.8% | viability, T/C (second compound 3 µM, first compound 0.00316 µM): 86.7% | viability, T/C (second compound 3 µM, first compound 0.01 µM): 87.5% | viability, T/C (second compound 3 µM, first compound 0.0316 µM): 78.5% | viability, T/C (second compound 3 µM, first compound 0.1 µM): 89% | viability, T/C (second compound 3 µM, first compound 0.316 µM): 90.7% | viability, T/C (second compound 3 µM, first compound 1 µM): 77%

CCN1CCN(Cc2ccc(Nc3ncc(F)c(-c4cc(F)c5nc(C)n(C(C)C)c5c4)n3)nc2)CC1 + CNC(C)C(=O)NC1CN(S(=O)(=O)c2cccc(S(=O)(=O)N3CCC4CCC(C(=O)NC(c5ccccc5)c5ccccc5)N4C(=O)C(NC(=O)C(C)NC)C3)c2)CCC2CCC(C(=O)NC(c3ccccc3)c3ccccc3)N2C1=O
IC50 [1]: > 1000 nM | IC50 [2]: > 1000 nM | IC50 [3]: > 1000 nM | IC50 [4]: > 1000 nM | IC50 [5]: > 1000 nM | viability, T/C (second compound 0.01 µM, first compound 0.00316 µM): 100% | viability, T/C (second compound 0.01 µM, first compound 0.01 µM): 108% | viability, T/C [6]: 106% | viability, T/C [7]: 99.7% | viability, T/C [8]: 96.5% | viability, T/C [9]: 111% | viability, T/C (second compound 0.0316 µM, first compound 0.00316 µM): 102% | viability, T/C (second compound 0.0316 µM, first compound 0.01 µM): 103% | viability, T/C [10]: 104% | viability, T/C [11]: 105% | viability, T/C [12]: 97.4% | viability, T/C [13]: 103% | viability, T/C (second compound 0.1 µM, first compound 0.00316 µM): 93.2% | viability, T/C (second compound 0.1 µM, first compound 0.01 µM): 101% | viability, T/C [14]: 99.2% | viability, T/C [15]: 97.8% | viability, T/C [16]: 103% | viability, T/C [17]: 109% | viability, T/C (second compound 0.316 µM, first compound 0.00316 µM): 99.3% | viability, T/C (second compound 0.316 µM, first compound 0.01 µM): 105% | viability, T/C [18]: 90.6% | viability, T/C [19]: 99.9% | viability, T/C [20]: 95.2% | viability, T/C [21]: 97.7% | viability, T/C (second compound 1 µM, first compound 0.00316 µM): 105% | viability, T/C (second compound 1 µM, first compound 0.01 µM): 109% | viability, T/C [22]: 101% | viability, T/C [23]: 110% | viability, T/C [24]: 90% | viability, T/C [25]: 93.7%
